Test results reported in patent US11911434B2, “Stable antibody-drug conjugate, preparation method therefor, and use thereof” (GENEQUANTUM HEALTHCARE (SUZHOU) CO., LTD., priority 2014, dated 2024).

Tests used:
MCF-7 cells = assay: Tumor cell proliferation, CellTiter Glo, MCF-7; assay type: cell-based, human; conditions: MCF-7, 48-96 h; read-out: Inhibition effects on tumor cell proliferation (IC50)
Procedure: (§1) 1) ErbB2/Her2 low expressing human breast cancer cells MCF-7, MDA-MB-468, ErbB2/Her2 high expressing human breast cancer cells BT-474, SK-BR-3, HCC1954, human ovarian cancer cells SK-OV-3, human gastric cancer cell NCI-N87 was seeded into a 96-well plate at 100 μl/well (containing 1000 to 10000 cells), and incubated in a cell culture incubator overnight (37° C., 5% CO2, 95% air, 100% humidity).
(§2) 3) The cell plate was removed from the incubator, equilibrated for about 30 minutes to room temperature. Each well was added 100 μl CellTiter Glo reagent, shocked in an oscillator for 2 min, then left stand for 10 min at room temperature in dark, the relative light units (RLU) is measured with a BioTech Gen5 microplate reader.

MDA-MB-468 cells = assay: Tumor cell proliferation, CellTiter Glo, MDA-MB-468; assay type: cell-based, human; conditions: MDA-MB-468, 48-96 h; read-out: Inhibition effects on tumor cell proliferation (IC50)
Procedure: as §1, §2

BT-474 cells = assay: Tumor cell proliferation, CellTiter Glo, BT-474; assay type: cell-based, human; conditions: BT-474, 48-96 h; read-out: Inhibition effects on tumor cell proliferation (IC50)
Procedure: as §1, §2

SK-BR-3 cells = assay: Tumor cell proliferation, CellTiter Glo, SK-BR-3; assay type: cell-based, human; conditions: SK-BR-3, 48-96 h; read-out: Inhibition effects on tumor cell proliferation (IC50)
Procedure: as §1, §2

HCC-1954 cells = assay: Tumor cell proliferation, CellTiter Glo, HCC1954; assay type: cell-based, human; conditions: HCC-1954, 48-96 h; read-out: Inhibition effects on tumor cell proliferation (IC50)
Procedure: as §1, §2

SK-OV-3 cells = assay: Tumor cell proliferation, CellTiter Glo, SK-OV-3; assay type: cell-based, human; conditions: SK-OV-3, 48-96 h; read-out: Inhibition effects on tumor cell proliferation (IC50)
Procedure: as §1, §2

NCI-N87 cells = assay: Tumor cell proliferation, CellTiter Glo, NCI-N87; assay type: cell-based, human; conditions: NCI-N87, 48-96 h; read-out: Inhibition effects on tumor cell proliferation (IC50)
Procedure: as §1, §2

[1] = tested on: cells with high ErbB2/Her2 expression (BT-474, SK-BR-3, HCC1954, SK-OV-3, NCI-N87); assay: Tumor cell proliferation, cells with high ErbB2/Her2 expression; assay type: cell-based, human; conditions: 0.005-30 nM
Procedure: as §1, §2

[2] = tested on: cells with low ErbB2/Her2 expression (MCF-7, MDA-MB-468); assay: Tumor cell proliferation, cells with low ErbB2/Her2 expression; assay type: cell-based, human; conditions: 0.005-30 nM
Procedure: as §1, §2

HCC1954 xenograft = HCC1954 xenograft in nude mice; assay type: in vivo, BALB/c nude mouse; conditions: 5 mg/kg
Procedure: The in vivo anti-tumor effect of the candidate ADC was determined using xenograft model of nude mice after administration of the candidate ADC.
1) HCC1954 breast cancer cells in the logarithmic growth phase were collected and adjusted with matrigel buffer (PBS: BD Matrigel=1:1) to a cell density of 2.5×10^7/ml. 0.2 ml of this prepared HCC1954 cell suspension was injected subcutaneously to the right scapula of each BALB/c nude mouse (6 to 8 week-old, SPF grade, female).
2) 7 days after cell inoculation, the diameter of the tumor was measured by caliper and the tumor volume was calculated according to the Formula: V=0.5a×b^2 (a is the longest diameter of the tumor, b is the shortest diameter of the tumor). […] Administration was via the tail vein injection, and the control group received an equal volume of the vehicle. […] The tumor volumes at each time point were calculated and compared between groups. At the same time, the T-C or T/C value was used as the index to evaluate the anti-tumor activity of each drug. T-C value is calculated as the follows: T is the average time (Days) when the average tumor volume of each treatment group reaches a preset size (500 mm^3), C is the average time (Day) when the average tumor volume of the controlled group reaches the preset size (500 mm^3). While T/C (percentage) is the index for tumor inhibition effect, T is the average tumor volume of all the drug treatment groups at a fixed time point, and C is the average tumor volume of the control group at the fixed time point.

Q: Which IC50 (MCF-7 cells) does the source give for COc1cc2cc(c1Cl)N(C)C(=O)C[C@H](OC(=O)[C@H](C)N(C)C(=O)CCS)[C@]1(C)O[C@H]1[C@H](C)[C@@H]1C[C@@](O)(NC(=O)O1)[C@H](OC)/C=C/C=C(\C)C2 [DM1] here?
A: The IC50 was 5.71 nM.

Q: And the IC50 (MDA-MB-468 cells)?
A: The IC50 was 4.22 nM.

Q: What about the IC50 (BT-474 cells) of the same molecule?
A: Its IC50 is 16.3 nM.

Q: And the IC50 (SK-BR-3 cells)?
A: Its IC50 is 1.92 nM.

Q: And the IC50 (HCC-1954 cells)?
A: The IC50 was 2.9 nM.

Q: What about the IC50 (SK-OV-3 cells) of the same molecule?
A: The IC50 was 1.59 nM.

Q: And the IC50 (NCI-N87 cells)?
A: The IC50 was 7.18 nM.

Q: And the “inhibition effect on proliferation (in words)” value (“inhibition effect” for short) [1]?
A: The value was “significant inhibition effect”.

Q: And the “inhibition effect” value [2]?
A: The value was “significant inhibition effect”.

Q: How did the IC50 (BT-474 cells) turn out when ado-trastuzumab emtansine [Kadcyla] was run?
A: The IC50 was 0.144 nM.

Q: And the IC50 (SK-BR-3 cells)?
A: Its IC50 is 0.03 nM.

Q: What about the IC50 (HCC-1954 cells) of the same molecule?
A: The IC50 was 0.049 nM.

Q: What about the IC50 (SK-OV-3 cells) of the same molecule?
A: The IC50 was 0.049 nM.

Q: And the IC50 (NCI-N87 cells)?
A: The IC50 was 0.031 nM.

Q: And the “inhibition effect” value [2]?
A: Its value is “only inhibits the proliferation of cells with low ErbB2/Her2 expression at high concentrations”.

Q: And the “inhibition on ErbB2/Her2 positive breast cancer (in words)” value (HCC1954 xenograft)?
A: The value was “significant inhibition”.

Q: What about the “tumor volumes compared with control group” value (HCC1954 xenograft; 10 days after administration) of the same molecule?
A: Its value is “significantly smaller than control group”.

Q: And the “Tumor Size at day 31 (Mean ± SEM)” value (HCC1954 xenograft; single tail vein injection, n=10)?
A: The value was 29 ± 4 mm^3.

Q: And the tumor regrowth (HCC1954 xenograft; until 38 days after the administration)?
A: The tumor regrowth was “No sign of tumor regrowth”.

Q: What about the “T-C at 500 mm^3” value (HCC1954 xenograft; time to reach 500 mm^3, treated minus control) of the same molecule?
A: Its value is over 17 days.

Q: What about the T/C (HCC1954 xenograft; treated / control average tumor volume) of the same molecule?
A: Its T/C is 1.3%.
